Source: ChEMBL document CHEMBL1128010, “Novel HO-DPAT (hydroxy-2-dipropylaminotetralin) isomers: Stereoselective synthesis and receptor binding studies” (Bioorg Med Chem Lett, 1994)

Experiments:
Type in all cases: cell membranes, Striatum, Membrane
D(1A) dopamine receptor = D(1A) dopamine receptor (Rattus norvegicus, UniProt P18901); assay: Compound was evaluated for its affinity to Dopamine receptor D1 labelled with [3H]-SCH- 23390 in rat striatal membranes
D(2) dopamine receptor [1] = molecular target: T1, D(2) dopamine receptor (Rattus norvegicus, UniProt P61169); assay: Compound was evaluated for its affinity to Dopamine receptor D2 labelled with [3H]spiroperidol in rat striatal membranes
T1 sequence (P61169 whole entry): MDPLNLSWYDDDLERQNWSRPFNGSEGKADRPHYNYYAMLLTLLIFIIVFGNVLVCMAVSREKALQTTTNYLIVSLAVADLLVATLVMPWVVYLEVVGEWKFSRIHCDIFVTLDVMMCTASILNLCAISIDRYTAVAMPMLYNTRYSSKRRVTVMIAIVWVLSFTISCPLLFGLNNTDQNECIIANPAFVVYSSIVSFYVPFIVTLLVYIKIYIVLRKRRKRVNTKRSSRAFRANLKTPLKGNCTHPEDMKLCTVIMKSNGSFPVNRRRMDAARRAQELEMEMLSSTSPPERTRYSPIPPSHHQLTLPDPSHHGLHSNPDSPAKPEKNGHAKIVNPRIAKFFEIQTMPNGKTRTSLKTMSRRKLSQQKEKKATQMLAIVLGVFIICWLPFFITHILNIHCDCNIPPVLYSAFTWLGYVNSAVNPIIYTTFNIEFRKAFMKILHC

D(2) dopamine receptor [2] = molecular target: T1, D(2) dopamine receptor; assay: Compound was evaluated for its affinity to Dopamine receptor D2 labelled with [3H]pramipexole in rat striatal membranes

D(1A) dopamine receptor, sequence (P18901 whole entry): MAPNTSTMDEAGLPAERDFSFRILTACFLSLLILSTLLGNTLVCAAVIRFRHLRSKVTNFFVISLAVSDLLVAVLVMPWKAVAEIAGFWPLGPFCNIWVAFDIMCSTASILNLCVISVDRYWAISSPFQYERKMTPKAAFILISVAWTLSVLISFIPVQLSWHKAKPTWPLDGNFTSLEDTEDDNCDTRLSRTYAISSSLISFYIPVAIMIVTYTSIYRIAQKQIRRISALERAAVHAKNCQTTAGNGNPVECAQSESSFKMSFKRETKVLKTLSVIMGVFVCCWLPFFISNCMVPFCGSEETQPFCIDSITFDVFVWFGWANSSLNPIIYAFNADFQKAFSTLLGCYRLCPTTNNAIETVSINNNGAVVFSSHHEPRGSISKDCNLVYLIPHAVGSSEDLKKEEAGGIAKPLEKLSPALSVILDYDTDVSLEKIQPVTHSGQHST

SMILES	Ki (D(1A) dopamine receptor)	Ki (D(2) dopamine receptor [1])	Ki (D(2) dopamine receptor [2])
CCCN(CCC)C1Cc2ccccc2[C@H](O)C1 (stereo partly specified)	> 50 µM	13.9 µM	0.0357 µM
CCCN(CCC)C1Cc2ccccc2[C@@H](O)C1 (stereo partly specified)	> 50 µM	13 µM	0.262 µM
